The values that follow are results of earlier work, collected in patent US11980685B1, “Liquid pharmaceutical formulations of tafamidis” (TaP Pharmaceuticals, AG, priority 2022, dated 2024).

≈ marks a conversion by molar mass, not a printed value. Where two headings read alike, the source gives them in different places.

In general, Solubility refers to how much of the substance goes into solution per volume.

For data set [1] the following is noted: 20 mg in 3.0 mL, equilibrated 1 h, UHPLC.

Turning to `O=C(O)c1ccc2nc(-c3cc(Cl)cc(Cl)c3)oc2c1` [Tafamidis, 2-(3,5-dichlorophenyl)-1,3-benzoxazole-6-carboxylic acid], the “Solubility” value by setting is: (pH 2.6, 0.02M Acetate-phosphate buffer) less than 2 µg/mL; (pH 5.3, 0.02M Acetate-phosphate buffer) less than 2 µg/mL; (pH 6.3, 0.02M Acetate-phosphate buffer) 2 µg/mL (≈ 6.49 µM); (pH 7.0, 0.02M Acetate-phosphate buffer) 15.8 µg/mL (≈ 51.3 µM); (pH 7.6, 0.02M Acetate-phosphate buffer as printed) 17.5 µg/mL (≈ 56.8 µM); (pH 7.8, 0.02M Acetate-phosphate buffer) 72.8 µg/mL (≈ 236 µM). For the same compound, the “Solubility” value (pH 8.0, 0.02M Acetate-phosphate buffer) was 140 µg/mL (≈ 454 µM). Moreover, the “Solubility classification per the BCS criteria” value (statement of the NDA 212161 applicant on Table F) is given as “poorly soluble drug substance”.

`O=C(O)c1ccc2nc(-c3cc(Cl)cc(Cl)c3)oc2c1` [′441 patent's tafamidis crystal form 1]: the “Concentration of tafamidis in saturated solution (solubility)” value in data set [1] (FaSSIF) was 9.0 µg/mL; in data set [1] (FeSSIF), 0.6 µg/mL; in data set [1] (SGF), 1.5 µg/mL.
